Data on 59 compounds can be found in patent publication US9278954B2, “Pyrrolidine derivatives, pharmaceutical compositions and uses thereof” (Boehringer Ingelheim International GmbH, priority 2013, dated 2016).

Structures are written as SMILES.

human ACC2, sequence (O00763 129-2458): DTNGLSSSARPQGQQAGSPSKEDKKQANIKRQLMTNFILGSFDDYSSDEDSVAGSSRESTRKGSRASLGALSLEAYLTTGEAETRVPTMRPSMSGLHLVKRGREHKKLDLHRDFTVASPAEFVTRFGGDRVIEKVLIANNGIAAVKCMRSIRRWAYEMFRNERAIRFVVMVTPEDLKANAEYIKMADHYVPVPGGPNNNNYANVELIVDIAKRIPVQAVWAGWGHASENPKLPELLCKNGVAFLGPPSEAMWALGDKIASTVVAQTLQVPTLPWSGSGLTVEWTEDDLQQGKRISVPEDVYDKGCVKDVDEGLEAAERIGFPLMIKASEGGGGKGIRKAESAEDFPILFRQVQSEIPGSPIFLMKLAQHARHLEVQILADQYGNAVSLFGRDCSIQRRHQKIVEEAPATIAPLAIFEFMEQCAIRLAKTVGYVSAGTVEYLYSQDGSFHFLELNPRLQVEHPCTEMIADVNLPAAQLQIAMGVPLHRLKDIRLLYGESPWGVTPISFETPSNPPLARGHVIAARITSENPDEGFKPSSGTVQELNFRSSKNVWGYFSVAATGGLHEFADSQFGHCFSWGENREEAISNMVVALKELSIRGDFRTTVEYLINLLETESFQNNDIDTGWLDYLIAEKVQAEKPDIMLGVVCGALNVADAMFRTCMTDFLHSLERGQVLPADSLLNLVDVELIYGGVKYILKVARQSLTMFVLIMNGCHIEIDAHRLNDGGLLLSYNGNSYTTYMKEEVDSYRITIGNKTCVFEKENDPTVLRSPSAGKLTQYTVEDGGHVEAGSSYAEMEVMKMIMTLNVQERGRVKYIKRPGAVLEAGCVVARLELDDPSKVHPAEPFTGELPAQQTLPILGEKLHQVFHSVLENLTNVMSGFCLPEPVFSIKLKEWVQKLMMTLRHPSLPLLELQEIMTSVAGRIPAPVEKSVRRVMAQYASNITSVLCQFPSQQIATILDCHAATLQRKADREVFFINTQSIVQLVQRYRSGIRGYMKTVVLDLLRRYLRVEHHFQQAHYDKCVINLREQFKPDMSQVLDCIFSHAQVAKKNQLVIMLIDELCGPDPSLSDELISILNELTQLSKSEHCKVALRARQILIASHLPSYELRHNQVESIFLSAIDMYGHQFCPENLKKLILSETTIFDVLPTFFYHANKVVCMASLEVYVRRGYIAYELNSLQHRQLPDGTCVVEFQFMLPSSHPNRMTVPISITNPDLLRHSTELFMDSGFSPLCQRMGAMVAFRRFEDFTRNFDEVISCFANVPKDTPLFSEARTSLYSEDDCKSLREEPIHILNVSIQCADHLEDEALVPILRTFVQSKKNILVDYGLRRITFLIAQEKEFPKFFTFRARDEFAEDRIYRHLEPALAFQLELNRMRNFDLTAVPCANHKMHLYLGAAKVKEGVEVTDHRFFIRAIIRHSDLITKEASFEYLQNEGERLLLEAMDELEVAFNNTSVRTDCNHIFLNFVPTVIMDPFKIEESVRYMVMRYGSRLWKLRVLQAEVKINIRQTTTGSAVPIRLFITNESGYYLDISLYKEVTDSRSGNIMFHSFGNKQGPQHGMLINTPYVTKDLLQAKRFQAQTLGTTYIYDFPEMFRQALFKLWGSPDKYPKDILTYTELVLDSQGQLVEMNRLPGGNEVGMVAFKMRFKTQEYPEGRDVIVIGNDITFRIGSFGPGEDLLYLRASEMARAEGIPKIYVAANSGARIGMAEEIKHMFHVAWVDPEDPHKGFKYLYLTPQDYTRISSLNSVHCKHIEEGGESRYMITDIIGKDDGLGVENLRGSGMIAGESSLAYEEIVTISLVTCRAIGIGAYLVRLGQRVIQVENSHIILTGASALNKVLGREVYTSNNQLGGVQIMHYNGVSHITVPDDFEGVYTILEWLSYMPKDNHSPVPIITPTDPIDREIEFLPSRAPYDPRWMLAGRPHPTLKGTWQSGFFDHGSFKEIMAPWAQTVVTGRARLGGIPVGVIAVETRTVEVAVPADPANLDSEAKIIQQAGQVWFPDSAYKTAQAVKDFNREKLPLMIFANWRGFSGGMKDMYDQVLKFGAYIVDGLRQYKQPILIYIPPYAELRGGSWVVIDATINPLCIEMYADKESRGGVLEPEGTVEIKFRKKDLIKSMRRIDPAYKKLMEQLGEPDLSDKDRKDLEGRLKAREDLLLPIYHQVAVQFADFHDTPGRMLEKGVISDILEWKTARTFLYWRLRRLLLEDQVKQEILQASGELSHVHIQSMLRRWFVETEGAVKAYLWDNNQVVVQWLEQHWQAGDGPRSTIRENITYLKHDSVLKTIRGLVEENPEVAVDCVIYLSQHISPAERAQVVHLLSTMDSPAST

For the test, the target named is human ACC2 (Homo sapiens (Human), UniProt O00763). In words: ACC2 assay (spectrophotometric 384 well assay, NADH-linked kinetic method). In kind it is biochemical. The note with it: hACC2 construct lacking the 128 N-terminal amino acids; 25° C., 340 nm over 15 minutes. On the procedure:
Spectrophotometric 384 Well Assay
Malonyl CoA formation by acetyl CoA carboxylases is stoichometrically linked to the consumption of ATP. ACC2 activity is measured in a NADH-linked kinetic method measuring ADP generated during the ACC reaction using a coupled lactate dehydrogenase/pyruvate kinase reaction.
The protein is then expressed in insect cells using a baculoviral expression system. Protein purification is performed by anion exchange.
All compounds are dissolved in dimethyl sulfoxide (DMSO) to a concentration of 10 mM.
The enzymatic reaction is then started by addition of a mixture of NADH, acetyl
Coenzyme A (both […].) and ATP (500 uM f.c.). The decrease of the optical density (slope S) is then determined at 25° C. at a wavelength of 340 nm over 15 minutes in a spectrophotometric reader.
Each assay microtiter plate contains wells with vehicle instead of compound as controls for the non-inhibited enzyme (100% CTL; ‘HIGH’) and wells without acetyl-CoA as controls for non-specific NADH degradation (0% CTL; ‘LOW’).
As to `C=C(C)CNC(=O)C(C)c1ccc(O[C@@H]2CCN(c3ncnc(OCC(C)(C)O)c3Cl)C2)cc1` (some centres unmarked) [Example 1.23], the IC50 (in general, the concentration at which inhibition is half-maximal) stood at 315 nM.

`CC(C(=O)NC1COC1)c1ccc(O[C@@H]2CCN(c3ccc(OCC4CC4(F)F)cn3)C2)cc1` (some centres unmarked) [Example 1.67] gave an IC50 of 706 nM.

As to `CCNC(=O)C(C)c1ccc(O[C@@H]2CCN(c3ccc(OCC4CC4(F)F)nc3C#N)C2)cc1` (some centres unmarked) [Example 7.23], the IC50 stood at 470 nM.

Take `CCCNc1nccc(N2CC[C@@H](Oc3ccc(C(C)C(=O)NC4CC4C)cc3)C2)c1F` (single isomer, unassigned) [Example 1.3]: it took 101 nM to reach half-maximal inhibition (IC50).

In the case of `C=CCNC(=O)C(C)c1ccc(O[C@@H]2CCN(c3ncnc(OCC(C)(C)O)c3Cl)C2)cc1` (some centres unmarked) [Example 1.25], half-maximal inhibition (IC50) required 322 nM.

`CC(C(=O)NCC(F)F)c1ccc(O[C@@H]2CCN(c3ccc(OCC4CC4(F)F)cn3)C2)cc1` (some centres unmarked) [Example 1.15] had an IC50 of 263 nM.

Compound `CCNC(=O)C(C)c1ccc(O[C@@H]2CCN(c3ccnc(N4CCOCC4)n3)C2)cc1` (some centres unmarked) [Example 2.6] gave an IC50 of 808 nM.

In turn, `C=CCCNC(=O)C(C)c1ccc(O[C@@H]2CCN(c3ccnc(NCCC)c3F)C2)cc1` (some centres unmarked) [Example 1.71] displayed an IC50 of 779 nM.

Compound `CCNC(=O)C(C)c1ccc(O[C@@H]2CCN(c3cc(C(F)(F)F)ccc3C)C2)cc1` (some centres unmarked) [Example 7.11] registered an IC50 of 365 nM.

In turn, `CC(C(=O)NCC1CC1)c1ccc(O[C@@H]2CCN(c3ncnc(OCC(C)(C)O)c3Cl)C2)cc1` (some centres unmarked) [Example 1.83] showed an IC50 of 1070 nM.

`CCCNC(=O)C(C)c1ccc(O[C@@H]2CCN(c3ncnc(OCC(C)(F)F)c3F)C2)cc1` (some centres unmarked) [Example 1.75] came in with a 50% inhibitory concentration (IC50) of 818 nM.

Compound `CCNC(=O)C(C)c1ccc(O[C@@H]2CCN(c3ccc(F)c(Cl)c3)C2)cc1` (some centres unmarked) [Example 7.31] came in with an IC50 of 639 nM.

`CC(C(=O)NC1CC1)c1ccc(O[C@@H]2CCN(c3ncnc(OCC(C)(F)F)c3F)C2)cc1` (some centres unmarked) [Example 1.5] gave an IC50 of 133 nM.

On to `C=C(C)CNC(=O)C(C)c1ccc(O[C@@H]2CCN(c3nc(N(C)C)ncc3F)C2)cc1` (some centres unmarked) [Example 1.44], for which 454 nM corresponded to half-maximal inhibition (IC50).

In the case of `CC(C)NC(=O)C(C)c1ccc(O[C@@H]2CCN(c3nc(N(C)C)ncc3F)C2)cc1` (some centres unmarked) [Example 1.81], the IC50 came out at 934 nM.

Consider `CCNC(=O)C(C)c1ccc(O[C@@H]2CCN(c3cccc(N(C)C)n3)C2)cc1` (some centres unmarked) [Example 7.20], for which the IC50 worked out at 445 nM.

In turn, `CC(C(=O)Nc1cccnc1)c1ccc(O[C@@H]2CCN(c3ncnc(OCC(C)(C)O)c3Cl)C2)cc1` (some centres unmarked) [Example 3.5] yielded an IC50 of 318 nM.

`CCNC(=O)C(C)c1ccc(O[C@@H]2CCN(c3ccc(OC4CCCCC4)nc3)C2)cc1` (some centres unmarked) [Example 7.28] returned an IC50 of 583 nM.

Regarding `CC(C(=O)NC1CC1C)c1ccc(O[C@@H]2CCN(c3ncnc(OCC(C)(C)O)c3F)C2)cc1` (some centres unmarked) [Example 3.2], the IC50 was 259 nM.

`CC(C(=O)N1CC(F)C1)c1ccc(O[C@@H]2CCN(c3nc(N(C)C)ncc3F)C2)cc1` (some centres unmarked) [Example 1.93] showed an IC50 of 5480 nM.

For `CCNC(=O)C(C)c1ccc(O[C@@H]2CCN(c3ccnc(C(F)(F)F)n3)C2)cc1` (some centres unmarked) [Example 9.2], the IC50 worked out at 975 nM.

Regarding `CCCNc1nccc(N2CC[C@@H](Oc3ccc(C(C)C(=O)NC4COC4)cc3)C2)c1F` (some centres unmarked) [Example 1.61], the IC50 worked out at 626 nM.

`CC(C(=O)Nc1cccnc1)c1ccc(O[C@@H]2CCN(c3nc(N(C)C)ncc3F)C2)cc1` (some centres unmarked) [Example 3.6]: the IC50 was 352 nM.

For the compound `CCNC(=O)C(C)c1ccc(O[C@@H]2CCN(c3cccc(C(F)(F)F)c3)C2)cc1` (some centres unmarked) [Example 7.4], the IC50 was 224 nM.

`CC(C(=O)NC1CC1C)c1ccc(O[C@@H]2CCN(c3ncnc(OCC(C)(F)F)c3F)C2)cc1` (some centres unmarked) [Example 1.14] had a 50% inhibitory concentration (IC50) of 244 nM.

For `CCCNc1ncnc(N2CC[C@@H](Oc3ccc(C(C)C(=O)NC4CC4)cc3)C2)c1F` (some centres unmarked) [Example 3.3], the IC50 turned out to be 280 nM.

`CC(C(=O)NC[C@H](C)O)c1ccc(O[C@@H]2CCN(c3ccc(OCC4CC4(F)F)cn3)C2)cc1` (some centres unmarked) [Example 1.89] displayed an IC50 of 1880 nM.

`CCNC(=O)C(C)c1ccc(O[C@@H]2CCN(c3ncnc(OCC(C)(C)O)c3Cl)C2)cc1` (some centres unmarked) [Example 1.17] displayed a 50% inhibitory concentration (IC50) of 272 nM.

For `CCNC(=O)C(C)c1ccc(O[C@@H]2CCN(c3ccc(F)c(C(F)(F)F)n3)C2)cc1` (some centres unmarked) [Example 8.2], the half-maximal inhibitory concentration (IC50) stood at 353 nM.

Regarding `CCCNC(=O)C(C)c1ccc(O[C@@H]2CCN(c3nc(N(C)C)ncc3F)C2)cc1` (some centres unmarked) [Example 1.65], the IC50 was determined as 667 nM.

For the compound `CC(C(=O)NC1CCC1)c1ccc(O[C@@H]2CCN(c3ccc(OCC4CC4(F)F)cn3)C2)cc1` (some centres unmarked) [Example 1.82], the IC50 is 940 nM.

Compound `CC(=O)Nc1nc(CNC(=O)C(C)c2ccc(O[C@@H]3CCN(c4ncnc(OCC(C)(F)F)c4F)C3)cc2)cs1` (some centres unmarked) [Example 1.87] displayed an IC50 of 1380 nM.

Take `CCNC(=O)C(C)c1ccc(O[C@@H]2CCN(c3cccc(C)n3)C2)cc1` (some centres unmarked) [Example 7.33]: the IC50 was 821 nM.

Compound `CCNC(=O)C(C)c1ccc(O[C@@H]2CCN(c3ccc(F)c(C)n3)C2)cc1` (some centres unmarked) [Example 7.27] came in with an IC50 of 563 nM.

`CCNC(=O)C(C)c1ccc(O[C@@H]2CCN(c3ccnc(C4CC4)n3)C2)cc1` (stereo partly drawn) [Example 5, 2-(4-[1-(2-Cyclopropyl-pyrimidin-4-yl)-(R)-pyrrolidin-3-yloxy]-phenyl)-N-ethyl-propionamide] showed an IC50 of 1760 nM.

`CCCNC(=O)C(C)c1ccc(O[C@@H]2CCN(c3ncnc(OCC(C)(C)O)c3Cl)C2)cc1` (some centres unmarked) [Example 1.40]: 437 nM corresponded to half-maximal inhibition (IC50).

`CCCN(C)c1nccc(N2CC[C@@H](Oc3ccc(C(C)C(=O)NCC)cc3)C2)n1` (some centres unmarked) [Example 2.3] came in with an IC50 of 188 nM.

Regarding `CNC(=O)C(C)c1ccc(O[C@@H]2CCN(c3ccc(OCC4CC4(F)F)cn3)C2)cc1` (some centres unmarked) [Example 1.28], the IC50 was found to be 346 nM.

`CCNC(=O)C(C)c1ccc(O[C@@H]2CCN(c3ccc(OCC)cc3)C2)cc1` (stereo partly drawn) [Example 4.1, 2-(4-[1-(4-Ethoxyl-phenyl)-(R)-pyrrolidin-3-yloxy]-phenyl)-N-ethyl-propionamide]: the IC50 is 288 nM.

`CC(C(=O)NC[C@@H](C)O)c1ccc(O[C@@H]2CCN(c3ccc(OCC4CC4(F)F)cn3)C2)cc1` (some centres unmarked) [Example 1.88] yielded an IC50 of 1780 nM.

`CCNC(=O)C(C)c1ccc(O[C@@H]2CCN(c3ccc(OC4CCCC4)cc3)C2)cc1` (some centres unmarked) [Example 7.2] registered an IC50 of 72 nM.

On to `CC(C(=O)NC1CC1)c1ccc(O[C@@H]2CCN(c3ncnc(OCC(C)(C)O)c3F)C2)cc1` (stereo partly drawn) [Example 3.1, N-Cyclopropyl-2-(4-(1-[5-fluoro-6-(2-hydroxy-2-methyl-propoxy)-pyrimidin-4-yl]-(R)-pyrrolidin-3-yloxy)-phenyl)-propionamide], for which the IC50 came out at 235 nM.

In turn, `CC(C)CNC(=O)C(C)c1ccc(O[C@@H]2CCN(c3ccc(OCC4CC4(F)F)cn3)C2)cc1` (some centres unmarked) [Example 1.79] gave an IC50 of 907 nM.

As to `CC(C(=O)NC1CC1C)c1ccc(O[C@@H]2CCN(c3nc(N(C)C)ncc3F)C2)cc1` (single isomer, unassigned) [6.2 isomer 2], the midpoint of inhibition, the IC50, lay at 177 nM.

Compound `CCNC(=O)C(C)c1ccc(O[C@@H]2CCN(c3ncc(OC4CCCC4)cc3F)C2)cc1` (stereo partly drawn) [Example 8.1, 2-(4-[1-(5-Cyclopentyloxy-3-fluoro-pyridin-2-yl)-(R)-pyrrolidin-3-yloxy]-phenyl)-N-ethyl-propionamide] showed an IC50 of 104 nM.

In turn, `CC(C(=O)NCC(F)(F)F)c1ccc(O[C@@H]2CCN(c3ncnc(OCC(C)(C)O)c3Cl)C2)cc1` (some centres unmarked) [Example 1.74] returned a concentration for half-maximal inhibition (IC50) of 813 nM.

On to `CCNC(=O)C(C)c1ccc(O[C@@H]2CCN(c3ccnc(N(C)CC)n3)C2)cc1` (some centres unmarked) [Example 2.2], for which inhibition was half-maximal at 179 nM (IC50).

Consider `CC(C(=O)NCC(F)F)c1ccc(O[C@@H]2CCN(c3ncnc(OCC(C)(F)F)c3F)C2)cc1` (some centres unmarked) [Example 1.46], for which the IC50 turned out to be 470 nM.

Regarding `CCNC(=O)C(C)c1ccc(O[C@@H]2CCN(c3ccnc(N(C)C4CC4)n3)C2)cc1` (some centres unmarked) [Example 2.5], the IC50 worked out at 575 nM.

`CCCNc1nccc(N2CC[C@@H](Oc3ccc(C(C)C(=O)NC(C)CO)cc3)C2)c1F` (some centres unmarked) [Example 1.72]: the IC50 stood at 789 nM.

The compound `CCNC(=O)C(C)c1ccc(O[C@@H]2CCN(c3ccc(OC(C)C)cc3)C2)cc1` (some centres unmarked) [Example 7.22] displayed an IC50 of 455 nM.

`CC(C(=O)NC1CC1C)c1ccc(O[C@@H]2CCN(c3nc(N(C)C)ncc3F)C2)cc1` (single isomer, unassigned) [6.2 isomer 1] returned an IC50 of 86 nM.

`CCNC(=O)C(C)c1ccc(O[C@@H]2CCN(c3ccc(OCC4CC4)nc3)C2)cc1` (some centres unmarked) [Example 7.24] returned an IC50 of 473 nM.

In the case of `CC(C(=O)Nc1cccc(F)c1)c1ccc(O[C@@H]2CCN(c3nc(N(C)C)ncc3F)C2)cc1` (some centres unmarked) [Example 3.4], 300 nM corresponded to half-maximal inhibition (IC50).

`CC(C(=O)NC1CC1C)c1ccc(O[C@@H]2CCN(c3ccc(OCC4CC4(F)F)cn3)C2)cc1` (some centres unmarked) [Example 1.12] returned an IC50 of 220 nM.

Take `CCCNc1nccc(N2CC[C@@H](Oc3ccc(C(C)C(=O)NCC(F)F)cc3)C2)c1F` (some centres unmarked) [Example 1.21]: the half-inhibitory concentration (IC50) turned out to be 309 nM.

For `CC(C(=O)NC1CCC1)c1ccc(O[C@@H]2CCN(c3ncnc(OCC(C)(C)O)c3Cl)C2)cc1` (some centres unmarked) [Example 1.50], inhibition was half-maximal at 501 nM (IC50).

With `CCCNc1nccc(N2CC[C@@H](Oc3ccc(C(C)C(=O)Nc4cccnc4)cc3)C2)c1F` (some centres unmarked) [Example 1.35], the IC50 was found to be 410 nM.

With `CCNC(=O)C(C)c1ccc(O[C@@H]2CCN(c3ncnc(OCC(C)(F)F)c3F)C2)cc1` (some centres unmarked) [Example 1.30], it took 378 nM to reach half-maximal inhibition (IC50).
